From US12130283B2, “Methods, systems and compositions for functional in vitro cellular models of mammalian systems” (University of Central Florida Research Foundation, Inc., priority 2012, dated 2024)

Tests used:
[1] = test system: patterned neonatal cardiomyocytes; assay: Field potential recordings from patterned neonatal cardiomyocytes on microelectrode arrays; type: cell-based, rat
Source text: However, commercial MEAs have electrodes spaced too close to allow effective measurement of conduction velocity, so the long linear surface chemistry patterns developed in [Natarajan 2011] allowed for measurement of conduction velocity in the spontaneously beating patterned cardiomyocytes effectively.
The μCCA in FIG. 4 required the use of liver cells and cardiac myocytes. In FIG. 4GB, pump is 43, other tissues compartment is 44, and bubble is 45. The neonatal cardiac myocyte cultures are obtained from two-day-old rat pups by previously published methods [Dhir 2009; Natajaran 2011]. Cardiac myocytes were plated at a density of […] on the patterned MEAs. Approximately 10 days were required for the cultures to establish themselves. Cardiac myocytes were stable on the patterns for at least 30 days. A silicon rubber gasket was used to isolate the tissue chambers on the μCCA prior to assembly to allow optimization of culture conditions in each chamber. After 10 days, cells were introduced to the liver compartment. […]
The cardiac myocytes were cultured on patterned metal MEAs (Planar 10 μm electrodes, 200 μm separation. Multichannel-systems). […] After a 30 minute incubation period, APs were detected and recorded using built in functions of the Multichannel System software. […] The data was further analyzed using software written using Matlab and Clampfit (Axon instruments).

colon cancer = settings: cited from earlier work
[2] = in vivo; cited from earlier work
cultured cardiomyocytes = assay: Spontaneous firing rate of cultured cardiomyocytes on patterned MEA (FIG. 14F); type: cell-based, human
Source text: The disclosed systems are based on human cardiac myocytes. As described herein, the incorporation of a functional cardiac system based on patterned cardiac cells integrated with microelectrode assays enabled the measurement of several cardiac parameters including conduction velocity, peak amplitude and spontaneous frequency, QT interval, and relative refractory period (which is related to triangulation). […] As shown in FIGS. 14A-F, cardiac function can be mimicked or simulated using a component comprising a microcantilever detection system (14A) or a patterned MEA (microelectrode array), FIG. 14D. […] Spontaneous or electrical stimulation-evoked force generation of cardiac myocytes was measured based on optical or electrical detection of cantilever-bending. […] The sensor detected the displacement of the laser beam caused by changes in the position of the cantilever. […] Peak contraction force and force-contraction velocity relationships were calculated based on the geometry of the cantilevers and the thickness of cultured cardiac myocytes (determined from immunostaining data). Compounds (such as norepinephrine, verapamil, and sotalol) were applied using traditional methods to the medium and possible changes in force or force-velocity relationship were detected and analyzed using standard statistical methods. […]

With `CCCCCCCO` [1-Heptanol] the “conduction velocity (CV) after Heptanol exposure” value ([1]; between electrodes 84 and 52, CV before addition of the drug 0.22 m/sec) was 0.011 m/sec.
In the case of `O=c1[nH]c(=O)n(C2CCCO2)cc1F` (stereo not drawn) [Tegafur], the “optimal uracil to Tegafur ratio” value (colon cancer; maximizing the concentration of 5-FU in the tumor relative to that in the blood) is given as 4 to 1.
In the case of `CC1(C)C(C=C(Cl)Cl)C1C(=O)OCc1cccc(Oc2ccccc2)c1` (stereo not drawn) [cis-permethrin], the “toxicity of cis isomers relative to trans isomers” value [2] is given as “about ten times more toxic”.
With `NC[C@H](O)c1ccc(O)c(O)c1` [norepinephrine] the “effect on spontaneous firing rates” value (cultured cardiomyocytes) was “elicits alteration of spontaneous firing rates”.
For `C[C@@H]1CN(c2c(F)c(N)c3c(=O)c(C(=O)O)cn(C4CC4)c3c2F)C[C@H](C)N1` [sparfloxacin], the “responsiveness of the patterned cardiac system” value [1] was “responsive”.
In the case of `O=c1cc[nH]c(=O)[nH]1` [uracil], the “effect on the toxicity of Tegafur” value (colon cancer) is listed as “enhances the toxicity of Tegafur”.
